From patent publication US20250082763A1, “COMBINATION DRUG FOR TREATING TRIPLE-NEGATIVE BREAST CANCER” (HINOVA PHARMACEUTICALS INC., priority 2022, published 2025)

What was measured:
Type in all cases: cell-based
MDA-MB-453 cells = test: Inhibition of proliferation of MDA-MB-453 cells (CCK-8 or CTG, 7-10 days); conditions: Homo sapiens, co-incubation 7-10 days, CCK-8 or CTG, read-out: IC50 values against MDA-MB-453 cells
Experimental: Triple negative breast cancer MDA-MB-453 cells in logarithmic growth stage were inoculated into a 96-well plate at a concentration of 4×10^3 cells/well, and then incubated in an incubator at 37° C., 5% CO2, and saturated humidity for 24 h or 48 h. To the negative control well, was added RPMI 1640 cell medium containing 10% fetal bovine serum in the same volume as the drug. After cultured for 24 h or 48 h, to the 96-well plate, were added AR PROTACs compounds 162, 177, 230, 259, 279, 281, 282, 325, 357, 400, ARV-110, ARV-766 and AR inhibitor HC-1119, respectively. The concentrations of compounds 177, 230, 259, 279, 281, 282, 325, 357, 400, ARV-110, and ARV-766 are 0 μM, 0.002 μM, 0.005 μM, 0.014 μM, 0.041 μM, 0.123 μM, 0.370 μM, 1.111 μM, 3.333 μM or 10 μM; while the concentrations of HC-1119 are 0 μM, 1.23 μM, 3.70 μM, 11.11 μM, 33.33 μM or 100 μM.
After addition of the drugs and co-incubation for 7-10 days, 10 μL of CCK-8 was added to each well, and then the plate was further cultured for 2 h. The absorbance value (OD) of each well was measured using a microplate reader at a wavelength of 450 nm. The survival rate was calculated using Prism software, the relative survival rate=(OD value of drug well/OD value of control well)×100%. Alternatively, 100 μL of medium was removed from each well, and then 50 μL of CTG was added. The plate was shaken in the dark for 2 min, allowed to stand for 10 min, and then measured using a microplate reader in Luminescence mode. Prism software was used to calculate the survival rate, the relative survival rate=(the RLU value of drug well/the RLU value of control well)×100%.

SUM159PT = test: Antiproliferation, CellTiter-Glo, 5 days, SUM159PT; conditions: Homo sapiens, SUM-159-PT, 120 h, AR+ TNBC
Experimental: (§1) Cells were treated with serial dilutions of tested compounds with the maximum working concentration of 10 μM. Cell survival was measured 5 days later using a CellTiter-Glo luminescent cell viability assay kit (Promega Corporation). Luminescence was recorded by FLUOstar Omega microplate reader (BMG Labtech). Half maximal inhibitory concentration (IC50) was determined with GraphPad Prism using baseline correction (by normalizing to dimethyl sulfoxide (DMSO) control)

MDA-MB-468 = test: Antiproliferation, CellTiter-Glo, 5 days, MDA-MB-468; conditions: Homo sapiens, 120 h, MDA-MB-468, AR− TNBC
Experimental: as §1, with “For MDA-MB-453, MFM-223, SUM159PT, MDA-MB-468, and HCC1937, 4,000, 3,000, 1,000, 3,000, and 3,000 cells were plated per well in 96-well microplates (Corning Inc), respectively. Cells” for “Cells”

[1] = system: AR+ TNBC cells (MDA-MB-453, SUM159PT and MFM-223) and AR- TNBC (MDA-MB-468 and HCC1937); test: Antiproliferation in AR positive and negative TNBC cells (summary over the cell line panel); conditions: AR+ TNBC cells: MDA-MB-453, SUM159PT and MFM-223
Experimental: as §1, with “For MDA-MB-453, MFM-223, SUM159PT, MDA-MB-468, and HCC1937, 4,000, 3,000, 1,000, 3,000, and 3,000 cells were plated per well in 96-well microplates (Corning Inc), respectively. Cells” for “Cells”

Androgen Receptor = molecular target: T1, Androgen Receptor (Homo sapiens, UniProt P10275); test: AR degradation in AR positive TNBC cells, western blotting; conditions: MDA-MB-453, SUM159PT and MFM-223 cells, 24 hours, up to 1 μM, western blot
T1 construct: endogenous in cells
T1 sequence (P10275 1-920): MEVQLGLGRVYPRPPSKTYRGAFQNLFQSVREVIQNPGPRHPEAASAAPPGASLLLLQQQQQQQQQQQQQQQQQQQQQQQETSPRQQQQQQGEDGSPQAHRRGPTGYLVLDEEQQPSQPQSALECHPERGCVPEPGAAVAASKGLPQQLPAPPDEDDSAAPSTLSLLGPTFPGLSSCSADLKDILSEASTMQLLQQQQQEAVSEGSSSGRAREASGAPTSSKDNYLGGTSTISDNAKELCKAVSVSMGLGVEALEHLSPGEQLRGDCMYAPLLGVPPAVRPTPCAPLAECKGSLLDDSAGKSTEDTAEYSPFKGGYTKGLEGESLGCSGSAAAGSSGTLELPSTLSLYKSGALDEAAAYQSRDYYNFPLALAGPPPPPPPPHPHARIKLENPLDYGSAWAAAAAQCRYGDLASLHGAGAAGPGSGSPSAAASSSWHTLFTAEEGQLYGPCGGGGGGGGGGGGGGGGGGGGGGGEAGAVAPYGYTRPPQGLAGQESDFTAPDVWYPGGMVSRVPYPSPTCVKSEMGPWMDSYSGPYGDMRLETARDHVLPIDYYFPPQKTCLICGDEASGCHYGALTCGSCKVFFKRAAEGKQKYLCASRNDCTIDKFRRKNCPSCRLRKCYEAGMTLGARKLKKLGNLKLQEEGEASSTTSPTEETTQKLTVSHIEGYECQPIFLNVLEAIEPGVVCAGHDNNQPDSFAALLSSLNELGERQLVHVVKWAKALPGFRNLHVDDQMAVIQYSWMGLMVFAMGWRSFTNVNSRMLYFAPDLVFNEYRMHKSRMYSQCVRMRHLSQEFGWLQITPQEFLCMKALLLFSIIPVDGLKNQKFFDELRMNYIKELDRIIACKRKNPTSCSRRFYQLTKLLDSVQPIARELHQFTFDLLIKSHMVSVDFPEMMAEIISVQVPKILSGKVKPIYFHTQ
Experimental: Cells were plated in 12-well microplates and incubated at 37° C. overnight for attachment. Cells were then treated for 24 hours with serial dilutions of tested compounds with the maximum working concentration of 1 μM. Cell lysate were subjected to the western blotting assay against AR antibody.
Primary antibodies: Androgen Receptor (D6F11) XP® Rabbit mAb; Anti-GAPDH Rabbit mAb; Secondary antibody: Goat Anti-Rabbit IgG H&L (HRP)

AR degradation (words, FIG. 1) (Androgen Receptor) | SMILES | IC50 (MDA-MB-453 cells) [µM] | IC50 (SUM159PT) [µM] | IC50 (MDA-MB-468) [µM] | anti-proliferation activity in AR+ TNBC cells [1]
– | N#Cc1ccc(O[C@H]2CC[C@H](NC(=O)c3ccc(N4CCC(CN5CCN(c6cc7c(cc6F)C(=O)N(C6CCC(=O)NC6=O)C7=O)CC5)CC4)nn3)CC2)cc1Cl (some centres unmarked) [ARV-110, reference compound] | ≤ 2 | 1.6 | > 10 | –
superior degradation activity | N#Cc1ccc(O[C@H]2CC[C@H](NC(=O)c3cnc(N4CCC(CN5CCC6(CC5)CN(c5ccc7c(c5)C(=O)N(C5CCC(=O)NC5=O)C7=O)C6)CC4)nn3)CC2)cc1Cl (some centres unmarked) [Compound 279] | ≤ 2 | 0.44 | > 10 | superior anti-proliferation activity
